Test results as given in patent publication US11178873B2, “Cyclic N-carboxamide compounds useful as herbicides” (FMC CORPORATION, priority 2015, dated 2021).

Assays:
Type in all cases: in vivo
[1] = system: barnyardgrass (Echinochloa crus-galli); experiment: Test A preemergence, barnyardgrass; details: 0 to 100 scale, 0 no effect, 100 complete control
Description: (§1) Seeds of plant species selected from barnyardgrass (Echinochloa crus-galli), crabgrass, large (large crabgrass, Digitaria sanguinalis), kochia (Kochia scoparia), ragweed (common ragweed, Ambrosia elatior), morningglory (Ipomoea spp.), velvetleaf (Abutilon theophrasti), ryegrass, Italian (Italian ryegrass, Lolium multiflorum), foxtail, giant (giant foxtail, Setaria faberii), wheat (Triticum aestivum), corn (Zea mays), and pigweed (Amaranthus retroflexus), were planted into a blend of loam soil and sand and treated preemergence with a directed soil spray using test chemicals formulated in a non-phytotoxic solvent mixture which included a surfactant. At the same time, plants selected from these crop and weed species and also blackgrass (Alopecurus myosuroides), and galium (catchweed bedstraw, Galium aparine), were planted in pots containing the same blend of loam soil and sand and treated with postemergence applications of test chemicals formulated in the same manner. Plants ranged in height from 2 to 10 cm and were in the one- to two-leaf stage for the postemergence treatment. Treated plants and untreated controls were maintained in a greenhouse for approximately 10 d, after which time all treated plants were compared to untreated controls and visually evaluated for injury. Plant response ratings, summarized in Table A, are based on a 0 to 100 scale where 0 is no effect and 100 is complete control. A dash (-) response means no test result.

[2] = system: kochia (Kochia scoparia); experiment: Test A preemergence, kochia; details: 0 to 100 scale, 0 no effect, 100 complete control
Description: as §1

[3] = system: ragweed (common ragweed, Ambrosia elatior); experiment: Test A preemergence, ragweed; details: 0 to 100 scale, 0 no effect, 100 complete control
Description: as §1

[4] = system: ryegrass, Italian (Italian ryegrass, Lolium multiflorum); experiment: Test A preemergence, ryegrass, Italian; details: 0 to 100 scale, 0 no effect, 100 complete control
Description: as §1

[5] = system: foxtail, giant (giant foxtail, Setaria faberii); experiment: Test A preemergence, foxtail, giant; details: 0 to 100 scale, 0 no effect, 100 complete control
Description: as §1

[6] = system: pigweed (Amaranthus retroflexus); experiment: Test A preemergence, pigweed; details: 0 to 100 scale, 0 no effect, 100 complete control
Description: as §1

[7] = system: barnyardgrass (Echinochloa crus-galli); experiment: Test A postemergence, barnyardgrass; details: 0 to 100 scale, 0 no effect, 100 complete control
Description: as §1

[8] = system: kochia (Kochia scoparia); experiment: Test A postemergence, kochia; details: 0 to 100 scale, 0 no effect, 100 complete control
Description: as §1

[9] = system: ragweed (common ragweed, Ambrosia elatior); experiment: Test A postemergence, ragweed; details: 0 to 100 scale, 0 no effect, 100 complete control
Description: as §1

[10] = system: ryegrass, Italian (Italian ryegrass, Lolium multiflorum); experiment: Test A postemergence, ryegrass, Italian; details: 0 to 100 scale, 0 no effect, 100 complete control
Description: as §1

[11] = system: foxtail, giant (giant foxtail, Setaria faberii); experiment: Test A postemergence, foxtail, giant; details: 0 to 100 scale, 0 no effect, 100 complete control
Description: as §1

[12] = system: wheat (Triticum aestivum); experiment: Test A postemergence, wheat; details: 0 to 100 scale, 0 no effect, 100 complete control
Description: as §1

[13] = system: corn (Zea mays); experiment: Test A postemergence, corn; details: 0 to 100 scale, 0 no effect, 100 complete control
Description: as §1

[14] = system: pigweed (Amaranthus retroflexus); experiment: Test A postemergence, pigweed; details: 0 to 100 scale, 0 no effect, 100 complete control
Description: as §1

[15] = system: blackgrass (Alopecurus myosuroides); experiment: Test A postemergence, blackgrass; details: 0 to 100 scale, 0 no effect, 100 complete control
Description: as §1

[16] = system: galium (catchweed bedstraw, Galium aparine); experiment: Test A postemergence, galium; details: 0 to 100 scale, 0 no effect, 100 complete control
Description: as §1

[17] = system: barnyardgrass (Echinochloa crus-galli); experiment: Test B flooded paddy test, barnyardgrass; details: Flood, scale 0 to 100 (0 no effect, 100 complete control), 13 to 15 d
Protocol: (§2) Plant species in the flooded paddy test selected from rice (Oryza sativa), sedge, umbrella (small-flower umbrella sedge, Cyperus difformis), ducksalad (Heteranthera limosa), and barnyardgrass (Echinochloa crus-galli) were grown to the 2-leaf stage for testing. At time of treatment, test pots were flooded to 3 cm above the soil surface, treated by application of test compounds directly to the paddy water, and then maintained at that water depth for the duration of the test. Treated plants and controls were maintained in a greenhouse for 13 to 15 d, after which time all species were compared to controls and visually evaluated. Plant response ratings, summarized in Table B, are based on a scale of 0 to 100 where 0 is no effect and 100 is complete control. A dash (-) response means no test result.

[18] = system: ducksalad (Heteranthera limosa); experiment: Test B flooded paddy test, ducksalad; details: Flood, scale 0 to 100 (0 no effect, 100 complete control), 13 to 15 d
Protocol: as §2

[19] = system: rice (Oryza sativa); experiment: Test B flooded paddy test, rice; details: Flood, scale 0 to 100 (0 no effect, 100 complete control), 13 to 15 d
Protocol: as §2

[20] = system: sedge, umbrella (small-flower umbrella sedge, Cyperus difformis); experiment: Test B flooded paddy test, sedge, umbrella; details: Flood, scale 0 to 100 (0 no effect, 100 complete control), 13 to 15 d
Protocol: as §2

Row | SMILES | Plant response rating, Barnyardgrass ([1]; 125 g ai/ha) | Plant response rating, Barnyardgrass ([1]; 500 g ai/ha) | Plant response rating, Kochia ([2]; 125 g ai/ha) | Plant response rating, Kochia ([2]; 500 g ai/ha) | Plant response rating, Ragweed ([3]; 125 g ai/ha) | Plant response rating, Ragweed ([3]; 500 g ai/ha) | Plant response rating, Ryegrass, Italian ([4]; 125 g ai/ha) | Plant response rating, Ryegrass, Italian ([4]; 500 g ai/ha) | Plant response rating, Foxtail, Giant ([5]; 125 g ai/ha) | Plant response rating, Foxtail, Giant ([5]; 500 g ai/ha) | Plant response rating, Pigweed ([6]; 125 g ai/ha) | Plant response rating, Pigweed ([6]; 500 g ai/ha) | Plant response rating, Barnyardgrass ([7]; 125 g ai/ha) | Plant response rating, Barnyardgrass ([7]; 500 g ai/ha) | Plant response rating, Kochia ([8]; 125 g ai/ha) | Plant response rating, Kochia ([8]; 500 g ai/ha) | Plant response rating, Ragweed ([9]; 125 g ai/ha) | Plant response rating, Ragweed ([9]; 500 g ai/ha) | Plant response rating, Ryegrass, Italian ([10]; 125 g ai/ha) | Plant response rating, Ryegrass, Italian ([10]; 500 g ai/ha) | further results
1 | O=C1NCC(c2ccc(F)c(F)c2)N1C(=O)Nc1ccccc1Cl (stereo not drawn) [Compound 9] | 0 | 0 | 0 | 0 | 0 | 0 | 0 | 0 | 0 | 0 | 0 | 0 | 0 | 0 | 0 | 0 | 0 | 0 | 0 | 0 | Plant response rating, Foxtail, Giant ([11]; 125 g ai/ha): 0; Plant response rating, Foxtail, Giant ([11]; 500 g ai/ha): 0; Plant response rating, Wheat ([12]; 125 g ai/ha): 0; Plant response rating, Wheat ([12]; 500 g ai/ha): 0; Plant response rating, Corn ([13]; 125 g ai/ha): 0; Plant response rating, Corn ([13]; 500 g ai/ha): 0; Plant response rating, Pigweed ([14]; 125 g ai/ha): 0; Plant response rating, Pigweed ([14]; 500 g ai/ha): 0; Plant response rating, Blackgrass ([15]; 125 g ai/ha): 0; Plant response rating, Blackgrass ([15]; 500 g ai/ha): 0; Plant response rating, Galium ([16]; 125 g ai/ha): 0; Plant response rating, Galium ([16]; 500 g ai/ha): 0; Plant response rating, Barnyardgrass ([17]; 500 g ai/ha): 0; Plant response rating, Ducksalad ([18]; 500 g ai/ha): 0; Plant response rating, Rice ([19]; 500 g ai/ha): 0; Plant response rating, Sedge, Umbrella ([20]; 500 g ai/ha): 0
2 | O=C1NCC(c2ccc(F)c(F)c2)N1C(=O)Nc1ccccc1C(F)(F)F (stereo not drawn) [Compound 10] | 0 | 0 | 0 | 0 | 0 | 0 | 0 | 0 | 20 | 60 | 0 | 0 | 0 | 0 | 0 | 0 | 0 | 0 | 0 | 0 | Plant response rating, Foxtail, Giant ([11]; 125 g ai/ha): 0; Plant response rating, Foxtail, Giant ([11]; 500 g ai/ha): 40; Plant response rating, Wheat ([12]; 125 g ai/ha): 0; Plant response rating, Wheat ([12]; 500 g ai/ha): 0; Plant response rating, Corn ([13]; 125 g ai/ha): 0; Plant response rating, Corn ([13]; 500 g ai/ha): 0; Plant response rating, Pigweed ([14]; 125 g ai/ha): 0; Plant response rating, Pigweed ([14]; 500 g ai/ha): 0; Plant response rating, Blackgrass ([15]; 125 g ai/ha): 0; Plant response rating, Blackgrass ([15]; 500 g ai/ha): 0; Plant response rating, Galium ([16]; 125 g ai/ha): 0; Plant response rating, Galium ([16]; 500 g ai/ha): 0; Plant response rating, Barnyardgrass ([17]; 500 g ai/ha): 0; Plant response rating, Ducksalad ([18]; 500 g ai/ha): 0; Plant response rating, Rice ([19]; 500 g ai/ha): 0; Plant response rating, Sedge, Umbrella ([20]; 500 g ai/ha): 0
3 | O=C1NCC(c2ccc(F)c(F)c2)N1C(=O)Nc1cccc(F)c1F (stereo not drawn) [Compound 11, N-(2,3-difluorophenyl)-5-(3,4-difluorophenyl)-2-oxo-1-imidazolidinecarboxamide] | 0 | 40 | 0 | 30 | 0 | 0 | 0 | 30 | 0 | 80 | 0 | 0 | 0 | 20 | 0 | 0 | 0 | 0 | 0 | 0 | Plant response rating, Foxtail, Giant ([11]; 125 g ai/ha): 0; Plant response rating, Foxtail, Giant ([11]; 500 g ai/ha): 30; Plant response rating, Wheat ([12]; 125 g ai/ha): 0; Plant response rating, Wheat ([12]; 500 g ai/ha): 0; Plant response rating, Corn ([13]; 125 g ai/ha): 0; Plant response rating, Corn ([13]; 500 g ai/ha): 0; Plant response rating, Pigweed ([14]; 125 g ai/ha): 0; Plant response rating, Pigweed ([14]; 500 g ai/ha): 0; Plant response rating, Blackgrass ([15]; 125 g ai/ha): 0; Plant response rating, Blackgrass ([15]; 500 g ai/ha): 0; Plant response rating, Galium ([16]; 125 g ai/ha): 0; Plant response rating, Galium ([16]; 500 g ai/ha): 0; Plant response rating, Barnyardgrass ([17]; 500 g ai/ha): 0; Plant response rating, Ducksalad ([18]; 500 g ai/ha): 60; Plant response rating, Rice ([19]; 500 g ai/ha): 0; Plant response rating, Sedge, Umbrella ([20]; 500 g ai/ha): 0
4 | O=C1NCC(c2ccccc2)N1C(=O)Nc1cccc(F)c1F (stereo not drawn) [Compound 12, N-(2,3-difluorophenyl)-2-oxo-5-phenyl-1-imidazolidinecarboxamide] | 20 | 50 | 0 | 20 | 0 | 0 | 0 | 0 | 60 | 90 | 0 | 0 | 60 | 90 | 0 | 0 | 0 | 0 | 0 | 0 | Plant response rating, Foxtail, Giant ([11]; 125 g ai/ha): 80; Plant response rating, Foxtail, Giant ([11]; 500 g ai/ha): 80; Plant response rating, Wheat ([12]; 125 g ai/ha): 0; Plant response rating, Wheat ([12]; 500 g ai/ha): 0; Plant response rating, Corn ([13]; 125 g ai/ha): 0; Plant response rating, Corn ([13]; 500 g ai/ha): 0; Plant response rating, Pigweed ([14]; 125 g ai/ha): 0; Plant response rating, Pigweed ([14]; 500 g ai/ha): 0; Plant response rating, Blackgrass ([15]; 125 g ai/ha): 0; Plant response rating, Blackgrass ([15]; 500 g ai/ha): 0; Plant response rating, Galium ([16]; 125 g ai/ha): 0; Plant response rating, Galium ([16]; 500 g ai/ha): 0; Plant response rating, Barnyardgrass ([17]; 1000 g ai/ha): 0; Plant response rating, Ducksalad ([18]; 1000 g ai/ha): 90; Plant response rating, Rice ([19]; 1000 g ai/ha): 0; Plant response rating, Sedge, Umbrella ([20]; 1000 g ai/ha): 0
